Experimental data from the NIST ThermoML archive (doi:10.1016/j.fluid.2004.11.019).

Experiment: xn = mol fraction of the nth substance listed
Conditions: Liquid

CCO [ethanol] + O
mass density [kg/m3]
Conditions	100 kPa	10000 kPa	20000 kPa	30000 kPa	40000 kPa
298.15 K, x1 = 0.003	995.3	999.8	1004.2	1008.5	1012.7
298.15 K, x1 = 0.0042	994.5	998.9	1003.2	1007.4	1011.5
298.15 K, x1 = 0.0082	993	997.3	1001.7	1005.9	1010
298.15 K, x1 = 0.0119	991.5	995.8	1000.1	1004.3	1008.3
298.15 K, x1 = 0.0158	989.8	994	998.2	1002.4	1006.4
298.15 K, x1 = 0.0184	988.4	992.6	996.8	1000.9	1005
298.15 K, x1 = 0.0219	987.6	991.7	995.9	1000.1	1004.1
298.15 K, x1 = 0.0255	986	990.2	994.4	998.4	1002.4
298.15 K, x1 = 0.0279	984.7	988.7	992.9	996.9	1000.8
298.15 K, x1 = 0.0315	984	988	992.1	996.1	1000
298.15 K, x1 = 0.0366	981.6	985.7	989.8	993.8	997.6
298.15 K, x1 = 0.0392	980.7	984.7	988.6	992.6	996.4
298.15 K, x1 = 0.0439	979.2	983.3	987.3	991.2	995.1
298.15 K, x1 = 0.0483	977.5	981.6	985.6	989.5	993.3
298.15 K, x1 = 0.0516	977.1	981	985.1	988.9	992.7
298.15 K, x1 = 0.0559	975.8	979.8	983.8	987.7	991.5
298.15 K, x1 = 0.06	974.5	978.5	982.4	986.3	990.1
298.15 K, x1 = 0.0652	972.9	976.9	980.8	984.7	988.4
298.15 K, x1 = 0.0679	972.2	976.1	980	983.9	987.6
298.15 K, x1 = 0.0722	971	974.9	978.7	982.6	986.3
298.15 K, x1 = 0.0801	968.6	972.4	976.2	980	983.7
298.15 K, x1 = 0.084	967.9	971.8	975.7	979.5	983.2
298.15 K, x1 = 0.0879	966.7	970.6	974.4	978.2	981.9
298.15 K, x1 = 0.0926	965.6	969.3	973.2	976.9	980.6
298.15 K, x1 = 0.0958	964.6	968.5	972.4	976.1	979.8
298.15 K, x1 = 0.1006	963.2	967.1	971	974.8	978.5
298.15 K, x1 = 0.1111	960.2	964.1	968	971.7	975.4
298.15 K, x1 = 0.1225	956.8	960.7	964.7	968.5	972.2
298.15 K, x1 = 0.1296	954.9	958.8	962.8	966.7	970.4
298.15 K, x1 = 0.1402	951.8	955.8	961.3	963.7	967.3
298.15 K, x1 = 0.151	948.4	952.5	956.6	960.5	964.3
298.15 K, x1 = 0.1601	945.6	949.8	953.9	957.9	961.7
298.15 K, x1 = 0.1703	942.5	946.7	950.9	955	958.9
298.15 K, x1 = 0.18	939.8	943.9	948.1	952.2	956.2
298.15 K, x1 = 0.1903	936.5	940.9	945.2	949.3	953.3
298.15 K, x1 = 0.1996	933.5	938	942.3	946.5	950.5
298.15 K, x1 = 0.2269	925.4	930	934.5	938.7	942.9
298.15 K, x1 = 0.2502	918.5	923.3	928	932.4	936.7
298.15 K, x1 = 0.2745	911.7	916.6	921.3	925.9	930.3
298.15 K, x1 = 0.3009	904.5	909.6	914.5	919.2	923.7
298.15 K, x1 = 0.35	891.9	897.1	902.3	907.2	911.9
298.15 K, x1 = 0.4034	879.4	884.9	890.4	895.5	900.4
298.15 K, x1 = 0.4501	868.8	874.7	880.4	885.7	890.8
298.15 K, x1 = 0.498	859.3	865.4	871.3	876.8	882
298.15 K, x1 = 0.5501	849.5	855.8	861.9	867.6	873
298.15 K, x1 = 0.5998	840.9	847.4	853.7	859.5	865.1
298.15 K, x1 = 0.6489	832.7	839.5	846	852	857.7
298.15 K, x1 = 0.6967	825.2	832.3	839	845.1	851
298.15 K, x1 = 0.7475	818.2	825.4	832.3	838.5	844.5
298.15 K, x1 = 0.7996	810.9	818.3	825.4	831.9	838.1
298.15 K, x1 = 0.8484	804.4	812.1	819.3	825.9	832.3
298.15 K, x1 = 0.8993	798	805.8	813.3	820	826.5
298.15 K, x1 = 0.9503	791.7	799.9	807.5	814.5	821
298.15 K, x1 = 1	785.7	794	801.9	808.9	815.7
323.15 K, x1 = 0.003	986.5	990.8	994.9	–	–
323.15 K, x1 = 0.0042	985.4	989.6	993.9	–	–
323.15 K, x1 = 0.0082	984	988.2	992.4	–	–
323.15 K, x1 = 0.0119	982.7	986.9	991.1	–	–
323.15 K, x1 = 0.0158	980.5	984.7	988.9	–	–
323.15 K, x1 = 0.0184	979.2	983.3	987.5	–	–
323.15 K, x1 = 0.0219	978	982.2	986.3	–	–
323.15 K, x1 = 0.0255	976.5	980.6	984.7	–	–
323.15 K, x1 = 0.0279	974.8	979	983.1	–	–
323.15 K, x1 = 0.0315	973.9	978.1	982.2	–	–
323.15 K, x1 = 0.0366	971.4	975.6	979.6	–	–
323.15 K, x1 = 0.0392	970.2	974.3	978.4	–	–
323.15 K, x1 = 0.0439	968.6	972.8	976.8	–	–
323.15 K, x1 = 0.0483	966.6	970.7	974.8	–	–
323.15 K, x1 = 0.0516	965.9	970	974	–	–
323.15 K, x1 = 0.0559	964.5	968.6	972.7	–	–
323.15 K, x1 = 0.06	962.9	967.1	971.2	–	–
323.15 K, x1 = 0.0652	960.9	965	969.1	–	–
323.15 K, x1 = 0.0679	960.2	964.3	968.3	–	–
323.15 K, x1 = 0.0722	958.3	962.5	966.6	–	–
323.15 K, x1 = 0.0801	955.1	959.3	963.4	–	–
323.15 K, x1 = 0.084	954.7	958.9	963	–	–
323.15 K, x1 = 0.0879	952.9	957.1	961.2	–	–
323.15 K, x1 = 0.0926	951.4	955.5	959.6	–	–
323.15 K, x1 = 0.0958	950.1	954.4	958.5	–	–
323.15 K, x1 = 0.1006	948.5	952.8	956.9	–	–
323.15 K, x1 = 0.1111	944.7	949	953.2	–	–
323.15 K, x1 = 0.1225	940.6	945.1	–	–	–
323.15 K, x1 = 0.1296	938.2	942.6	–	–	–
323.15 K, x1 = 0.1402	934.5	939	–	–	–
323.15 K, x1 = 0.151	930.7	935.2	–	–	–
323.15 K, x1 = 0.1601	927.5	932.2	–	–	–
323.15 K, x1 = 0.1703	924	928.8	–	–	–
323.15 K, x1 = 0.18	920.6	925.5	–	–	–
323.15 K, x1 = 0.1903	917.3	922.1	–	–	–
323.15 K, x1 = 0.1996	914.1	919	–	–	–
323.15 K, x1 = 0.2269	905.2	910.3	–	–	–
323.15 K, x1 = 0.2502	898.1	903.4	–	–	–
323.15 K, x1 = 0.2745	890.8	896.3	–	–	–
323.15 K, x1 = 0.3009	883.5	889.2	–	–	–
323.15 K, x1 = 0.35	870.2	876.2	–	–	–
323.15 K, x1 = 0.4034	857.3	863.7	–	–	–
323.15 K, x1 = 0.4501	846.7	853.3	–	–	–
323.15 K, x1 = 0.498	837	843.9	–	–	–
323.15 K, x1 = 0.5501	826.9	834.3	–	–	–
323.15 K, x1 = 0.5998	818.4	826.3	–	–	–
323.15 K, x1 = 0.6489	810.1	817.9	–	–	–
323.15 K, x1 = 0.6967	802.8	810.9	–	–	–
323.15 K, x1 = 0.7475	795.4	803.8	–	–	–
323.15 K, x1 = 0.7996	788.4	796.9	–	–	–
323.15 K, x1 = 0.8484	781.9	790.8	–	–	–
323.15 K, x1 = 0.8993	775.6	784.7	–	–	–
323.15 K, x1 = 0.9503	769.5	779	–	–	–
323.15 K, x1 = 1	763.7	773.4	–	–	–
